Laboratory results published in EP4775570A1, “CYP11A1 INHIBITOR, PREPARATION METHOD THEREFOR AND USE THEREOF” (Shenzhen Zhongge Biological Technology Co., Ltd., priority 2023, dated 2025).

Assays:
[1] = system: VCaP castration-resistant prostate cancer subcutaneous transplant tumor model; assay: In vivo pharmacodynamic study in a VCaP castration-resistant prostate cancer subcutaneous transplant tumor model; parameters: species or system SCID-Beige mice; conditions: 30mg/kg BID oral + prednisone 0.6mg/kg QD; for tumor inhibitory activity (in words): compared with ODM-208
Experimental: Animals: experimental male SCID-Beige mice, 6-8-weeks old or 18-22g, provided by Beijing Vital River Laboratory Animal Technology Co., Ltd.
Experiment procedures: all experimental animals were kept within specific-pathogen-free animal barrier facility, and allowed 3 days of adaptation before the experiment began. VCaP tumor cells were in vitro cultured as monolayer in DMEM complete medium (with 10% fetal bovine serum and 1% penicillin & streptomycin) at 37°C in air containing 5% CO2. Tumor cells were routinely passaged 2-3 times a week, and cells in exponential growth phase were collected and counted for tumor cell inoculation. 10x10^6 VCaP tumor cells were resuspended in 0.1ml PBS, thoroughly mixed with 0.1ml matrigel, and then inoculated subcutaneously on the right flank of each mouse to form a tumor. The tumor-bearing mice were allowed to develop to an average tumor volume of around 200mm^3 and underwent castration surgery. The tumor volumes of all mice were measured after one week of castration surgery. Suitable tumor-bearing mice were selected and assigned randomly into the following groups: blank control group, prednisone (0.6mg/kg, QD) group, abiraterone (33.73mg/kg, QD) + prednisone (0.6mg/kg, QD) group, ODM-208 (30mg/kg, BID) + prednisone (0.6mg/kg, QD) group, and the compound of the present disclosure (30mg/kg, BID) + prednisone (0.6mg/kg, QD) group. Animals in blank control group were orally administered with vehicles (0.5%MC+0.5%Tween80 and 0.5%CMCNa), and the animals in other groups were orally administered with corresponding compound. The experiment lasted for 32 days, and during the experiment, the animals in each group were measured for tumor volume and body weight twice a week.

[2] = LC-MS detection of concentrations of tested compounds in mouse plasma, tumors and adrenal glands; assay type: in vivo; conditions: compound + prednisone group vs ODM-208 + prednisone group of the VCaP model
From the text: • Mouse tumors were homogenized using PBS in a 1:5 ratio (tumor weight (g): PBS volume (mL), w/v); • Mouse adrenal glands were homogenized using PBS in a 1:10 ratio (adrenal gland weight (g): PBS volume (mL), w/v); • Standard sample: testosterone (LGC, C17322500), progesterone (MCE, HY-N0437), adrenal ketone (MCE, HY-B1618), and standard solution of test substance.
Concentrations of tested compounds in mouse plasma, tumors and adrenal glands: The multiple reaction monitoring (MRM) method was used to detect the concentrations in mouse plasma, tumors and adrenal glands. Mass spectrum: AB Sciex Triple Quad 6500+, liquid chromatography: Shimadzu 40A, column: XBridge BEH C18 2.5 µm 2.1*50mm, ODM208 ion pair: 419.20/176.20, tested compounds ion pair: 429.20/200.20. Acetonitrile was used as precipitant, and propranolol diclofenac were used as the internal standard for sample pretreatment in plasma, tumor, and adrenal tissue. The linear ranges of the standard in plasma tissue was 0.5-1000 ng/mL, the linear ranges of the standard in tumor tissue was 3-6000 ng/mL, and the linear ranges of the standard in adrenal tissue was 5.5-11000 ng/mL.

Row | Compound | weight loss (in words) [1] | animal weight loss ([1]; 32 days) | tumor inhibition rate TGI ([1]; castrated tumor-bearing mice, 32 days) | tumor inhibitory activity (in words) [1] | drug concentration in adrenal glands relative to ODM-208 [2] | drug concentration in plasma relative to ODM-208 [2] | drug concentration in tumors relative to ODM-208 [2]
1 | COc1cc(CN2Cc3ccccc3C2)ccc1CCC1CCN(S(C)(=O)=O)CC1 [compound 53] | without significant weight loss | -2% | 112% | significantly better than ODM-208 | 80 fold | 3 fold | 10 fold
2 | Cn1c(CN2Cc3ccccc3C2)c(F)cc(CCC2CCN(S(C)(=O)=O)CC2)c1=O [compound 72] | without significant weight loss | – | – | significantly better than ODM-208 | 3.3 fold | 1.6 fold | 3.6 fold
